Values of other authors as cited in patent US20240100168A1, “LIPID COMPOSITIONS AND METHODS OF PREPARATION THEREOF” (Wake Forest University, priority 2020, published 2024).

What was measured:
Conditions in all cases: blocks production of pro-inflammatory eicosanoids
COX2 = molecular target: T1, COX2 (Homo sapiens, UniProt P35354)
T1 sequence (P35354 18-604): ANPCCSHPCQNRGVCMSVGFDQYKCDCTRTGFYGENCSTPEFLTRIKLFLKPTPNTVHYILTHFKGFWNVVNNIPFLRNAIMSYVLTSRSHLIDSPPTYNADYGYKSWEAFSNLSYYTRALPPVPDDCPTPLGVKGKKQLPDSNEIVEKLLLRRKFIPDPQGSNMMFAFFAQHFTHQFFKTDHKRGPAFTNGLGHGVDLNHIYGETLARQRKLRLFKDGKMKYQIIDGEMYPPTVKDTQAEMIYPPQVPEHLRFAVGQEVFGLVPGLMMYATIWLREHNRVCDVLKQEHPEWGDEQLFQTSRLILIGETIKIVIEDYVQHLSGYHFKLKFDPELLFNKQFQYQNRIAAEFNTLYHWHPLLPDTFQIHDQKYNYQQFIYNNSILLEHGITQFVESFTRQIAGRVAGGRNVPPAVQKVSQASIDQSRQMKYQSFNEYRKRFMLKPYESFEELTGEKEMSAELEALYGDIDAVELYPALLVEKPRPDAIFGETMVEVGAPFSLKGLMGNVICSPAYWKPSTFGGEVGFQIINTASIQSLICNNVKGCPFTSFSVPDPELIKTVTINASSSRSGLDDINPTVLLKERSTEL

lipoxygenases = tested on: lipoxygenases
COX1 = COX1 (Homo sapiens, UniProt P23219)
Sequence of COX1 (P23219 24-599): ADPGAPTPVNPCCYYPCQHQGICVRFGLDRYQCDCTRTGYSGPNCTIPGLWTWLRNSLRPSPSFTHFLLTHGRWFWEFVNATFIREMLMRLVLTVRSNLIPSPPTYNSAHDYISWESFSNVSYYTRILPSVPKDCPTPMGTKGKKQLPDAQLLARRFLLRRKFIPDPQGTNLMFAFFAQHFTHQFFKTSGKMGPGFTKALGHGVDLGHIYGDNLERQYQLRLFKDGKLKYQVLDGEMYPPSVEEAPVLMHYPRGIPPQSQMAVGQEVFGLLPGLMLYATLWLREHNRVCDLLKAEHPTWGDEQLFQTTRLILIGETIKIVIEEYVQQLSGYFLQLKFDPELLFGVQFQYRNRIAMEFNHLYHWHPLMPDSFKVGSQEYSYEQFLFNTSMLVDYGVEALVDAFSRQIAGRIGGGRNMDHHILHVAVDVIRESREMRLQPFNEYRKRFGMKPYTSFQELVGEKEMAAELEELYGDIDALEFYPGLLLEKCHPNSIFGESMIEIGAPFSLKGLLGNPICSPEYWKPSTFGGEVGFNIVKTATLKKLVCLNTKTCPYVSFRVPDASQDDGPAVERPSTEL

CC/C=C\C/C=C\C/C=C\C/C=C\CCCCCCC(=O)O [ETA, 8Z,11Z,14Z,17Z-eicosatetraenoic acid]
dual inhibitor: inhibition of COX2 (COX2) | inhibition of lipoxygenases (lipoxygenases) | inhibition of COX1 (COX1)
